Source: a melting point compilation (Tetko et al.; mined from patent text by program, amines drawn as free bases though some values may be those of a salt)

SMILES	melting point [°C]
CC(=O)Nc1ccc(SC2OC(CO)C(O)C(O)C2O)cc1 (stereo unspecified)	160 to 163
COc1ccnc(CSc2nc3cc4c(cc3[nH]2)OC(F)(F)O4)c1	151 to 152
CN(C)CCc1ccc(O)c2nc[nH]c12	245 to 252
CONS(=O)(=O)c1cccc(C)c1	90 to 92
CCCCCCCCCCCCCCOc1ccc(NCc2cccnc2)cc1	75 to 76
CCOC(=O)C(=CNC1CC1)C(=O)c1c(F)c(F)c(F)c(F)c1F	85 to 86
CCOc1ncc(C(C)=O)cc1C(=O)Nc1c(C(N)=O)nn(C2CCN(C(=O)OC(C)(C)C)CC2)c1CC	197 to 202
Cc1c(F)c(N2CCC(C)(CN)C2)cc2c1c(=O)c(C(=O)O)cn2C1CC1 (stereo unspecified)	250 to 252
Cc1cc(C)nc(-n2cnc(N)n2)n1	235 to 238
CC(=O)OC1CCC2C3CCC4=CC(=O)C=C(C)C4(C)C3CCC12C (stereo unspecified)	144
Cc1nc(N(C)C)n2ncc(-c3ccncc3)c2n1	195 to 197
CC#CCc1c(C)nc2cc(C)nn2c1N	215 to 219
O=C1c2cc(F)cc(F)c2OC[C@H]1NC(=O)C(F)(F)F	167 to 168
CC(C)NCC(O)COc1cccc(-c2nc(C(F)(F)F)c[nH]2)c1 (stereo unspecified)	162 to 164
Oc1ccc(-c2noc3cc(O)ccc23)c(O)c1	300 to 305
COc1cc(OC)cc(-c2nc[nH]c2-c2ccc(OC)c(N)c2O)c1	132 to 134
N#Cc1nn(-c2c(Cl)cc(C(F)(F)F)cc2Cl)c(NCc2ccccn2)c1SC(F)F	117 to 120
COc1cc2c(cc1Cl)CC(=O)NN=C2c1ccc([N+](=O)[O-])cc1	258 to 262
CCC(OC(=O)COC)c1ccc(Cl)c2nc3n(c12)CCCN3c1ccc(Cl)cc1Cl (stereo unspecified)	156 to 158
Cc1cc(C)n(C(=O)c2cn3c(C)csc3n2)n1	172 to 176
Nc1cccc(-c2ccc(CCN3CCN(c4cccc(C(F)(F)F)c4)CC3)cc2)n1	189 to 191
Nc1ccc(CCO)c(N)c1	67 to 72
O=C1c2cccc(NC(=S)Nc3cccc4c3C3CC5(CCN3C4=O)SCCS5)c2C2CC3(CCN12)SCCS3 (stereo unspecified)	188

SMILES	melting point [°C]
CC(O)C(C)(C)NC(N)=S (stereo unspecified)	148 to 151
C=CCNC(=NC#N)Nc1ccc(C2=NNC(=O)CC2C)cc1 (stereo unspecified)	224 to 226
O=C(NC1CCC(CCN2CCN(c3nccc4c3CCO4)CC2)CC1)C(O)C(F)(F)F (racemic)	204
FC(F)(F)Sc1c(-c2ccc(Cl)cc2)[nH]c(C(F)(F)F)c1Br	87 to 88.5
OCCC1(S)C2CC3CC(C2)CC1C3 (stereo unspecified)	68 to 70
CC(C)CS(=O)c1ccc(N)c([N+](=O)[O-])c1 (stereo unspecified)	111 to 118
CN(C)c1nc2sc3c(NCCN4CCOCC4)ncnc3c2c2c1CCC(C)(C)C2	173 to 175
NC(=S)c1cc(Cl)cc2cc(Cl)cnc12	226
CNc1c([N+](=O)[O-])cc(C(C)(C)C)cc1[N+](=O)[O-]	129 to 130
CC(=O)OCC(C)C1CCC2C3CC=C4CC(O)CCC4(C)C3CCC12C (stereo unspecified)	143
CCC(C)NC(=O)n1nc(Oc2c(Cl)cc(C(F)(F)F)cc2Cl)cc1C (stereo unspecified)	73 to 75
CCCOC(=Nc1sccc1C#N)OCCC	65 to 67
O=S1(=O)c2cccc3cccc(c23)N1CCCCN1CC=C(c2ccccc2)CC1	101
Cc1nc2nccc(-c3cccs3)n2n1	184 to 185
CC(=O)N(N(CCCl)S(C)(=O)=O)S(C)(=O)=O	148 to 149
COc1cc(Cl)ccc1-c1nc2cc3c(cc2[nH]1)C(C)(C)CC(=O)N3	300 to 303
CCC(=O)SCC(C)C(=O)N1C(C(=O)O)CC2CCCCC21 (stereo unspecified)	170 to 172
O=C1NCCC[C@@H]1NS(=O)(=O)c1cc(F)ccc1F	183 to 185
COc1ccc(CCN(C)C(C)(C)CO)cc1	40
CCCOc1nc(O)ns1	92
Oc1c(F)ccc(-c2c3ccccc3c(Br)c3sc4ccccc4c23)c1F	180 to 182
Cc1c[nH]c(=O)nc1N	264 to 269
COc1cc(Cc2cnc(N)nc2N)cc2c(C)ccnc12	287 to 290

Results, then the compound that gave them:

melting point [°C]	SMILES
234 to 235	O=C(NCc1ccccn1)Nc1cc(N2CCCC2=O)ccn1
165 to 166	CC(C)n1nc(-c2cc(C(=O)N3CCN(C)CC3)cnc2-c2ccccc2)ccc1=O
110 to 112	CC(C)(C)NC(=O)N(Cc1ccccc1)CC(O)C(Cc1ccccc1)NC(=O)C(CC(N)=O)NC(=O)c1ccc2ccccc2n1 (stereo unspecified)
304 to 306	CC(C)CCNC(=O)c1cc2c(Nc3cccc(Cl)c3)ncnc2[nH]1
75 to 78	O=C1CCc2c1cccc2-c1ccc(C(F)(F)F)cc1
143	O=C(c1ccccc1)C(c1ccc(Cl)cc1)c1c(Cl)cc(-n2ncc(=O)[nH]c2=O)cc1Cl (stereo unspecified)
166	CC(CN1CCN(C)CC1)OC(=O)c1c[nH]c2ccccc12 (stereo unspecified)
130 to 131	O=C(CCc1oc(-n2ccnc2)nc1-c1ccc(Cl)cc1)NCCCl
161	CCCCC(=O)CC1c2ccccc2C(=O)N1c1ccc2ccc(OC)nc2n1 (stereo unspecified)
204 to 208	Cc1cccc(CC2CCN(C(=O)C(=O)Nc3ccc4[nH]c(=O)oc4c3)CC2)c1
253 to 257	C=Cn1cc(C(=O)O)c(=O)c2cc(F)c(N3CCC(N)C3)nc21 (stereo unspecified)
133	COc1ccc(S(=O)(=O)N(CC(N)=O)c2ccc(Cl)cc2Cc2ccccc2C(F)(F)F)cc1OC
50 to 58	CC(C)(C)OC(=O)Nc1ccc(-c2ccccc2F)cc1NC(=O)CC(=O)c1cccc(-n2ccnc2)c1
181 to 182	Nc1cccc(Sc2ccc3c(c2)OCC(=O)N3)c1
205 to 206	CCOC(=O)c1nccc(NC=O)n1
198	C[C@H](NC(=O)c1cc(Cl)cnc1Oc1ccc(F)cc1)c1ccc(C(=O)O)cc1
84 to 85	CCOC(=O)C=C(C)C=CC=C(C)C=Cc1c(C)cc(C)c(Cl)c1C
226 to 228	Nc1ccc2c3c(cccc13)C(=O)N(C1CCN(Cc3ccccc3)CC1)C2=O
127 to 128	CO[C@@H]1CCCC(c2ccc(C(=O)N3Cc4cccn4Cc4ccccc43)cc2C)=C1C
228 to 237	COc1ccc(Nc2ccc(Nc3ncnc4cc(-c5ccccc5[N+](=O)[O-])sc34)cc2)cc1
135 to 136	COC(=O)Cc1oc2ccc(Cl)cc2c1-c1ccccc1C
149	C[C@@H](NC(=O)c1[nH]c2ccc(Cl)cc2c1S(=O)(=O)c1ccccc1)c1ccccc1
263 to 265	NC(=O)c1cccc(-c2ccc3nnn(Cc4ccc5ncccc5c4)c3n2)c1
158 to 160	CCOCS(=O)(=O)c1ccc(C(CC2CCCC2)C(=O)Nc2nc3ccc(OC)nc3s2)cc1 (stereo unspecified)
109 to 110	O=C1c2ccccc2C=C(Cl)Cc2ccccc21
193	Nc1nc(-c2nn(Cc3ccccc3F)c3ncccc23)nc(N)c1Cc1ccccc1
174 to 176	CCCc1ccc(C(=O)Nc2ccc(C(C)=O)cc2)cc1
260 to 261	COc1cc(Nc2nsc(-c3ccccc3)n2)ccc1-c1cnco1

melting point [°C]	SMILES
270 to 272	O=C(NCCc1ccccc1F)c1c(Cl)ccc2nc(N3CCC(C(=O)O)CC3)ccc12
187 to 189	COC(=O)c1ccc(C(=O)CC(=O)/C=C/c2ccc(O)c(OC)c2)cc1
152 to 153	Cc1nccn1-c1nc(-c2ccc(Cl)cc2)c(CCCN2C(=O)COC2=O)o1
102 to 104	COc1ncc(CN2C(=O)C3(COc4cc5c(cc43)OCCO5)c3ccccc32)cn1 (stereo unspecified)
280 to 281	O=C1c2ccccc2C(=O)N1Cc1cccc(-c2nc(=O)c3ccccc3s2)n1
157 to 159	O=c1c2ccccc2c(Cc2ccc(F)cc2)nn1N1CCNCC1
142	COc1cccc(-c2nc(N)nc(Nc3cccc(Br)c3)n2)c1
> 250	NCC1Cc2cc(-c3ccccc3)cc(-c3ccc(F)cc3)c2O1 (stereo unspecified)
66 to 68	O=C(NCc1csc(C(F)(F)F)n1)c1ccnc(N2CCN(Cc3ccc(F)cc3)C2=O)c1
180 to 184	CCCNC(=S)NC1=Nc2ccccc2CS1
124 to 126	CCC1c2cccn2-c2ccccc2N1S(=O)(=O)c1ccc(OC)c(C)c1 (stereo unspecified)
134 to 142	CCOC(=O)c1cccc(C)c1S(=O)(=O)NC(=O)Nc1nc(OCC(F)(F)F)nc(N(C)C)n1
149 to 152	COC(=O)CCc1ccc(N2CCCN(c3ccc(C#N)cc3)C2=O)cc1
139 to 142	CC1(COC(=O)c2ccccc2)COC(CBr)(c2ccc(Cl)cc2Cl)OC1 (stereo unspecified)
189 to 191	COC(=O)c1ncn2c1c(OC)nc1ccccc12
122	CCN(CC)C(=O)c1cc2ccccc2c(-c2ccc(Cl)cc2)n1
107 to 109	O=C(O)C=Cc1cccc(Oc2ccccc2)c1
278 to 280	N#Cc1cc(-c2ccc(Cl)cc2)c[nH]c1=O
238	COc1ccc(-c2[nH]nc3c2C(=O)c2c(NC(=O)Cc4ccc(Cl)cc4)cccc2-3)cc1
163 to 165	Cc1cc2c(c3ccc(=O)[nH]c13)OC(CSCCN(C)C)C2 (stereo unspecified)
127 to 129	CCOC(=O)C1CN(Cc2ccccc2)C(=O)C(=C2SC=CS2)C1=O (stereo unspecified)
119	COc1ccc(C2(O)c3ccccc3C(=O)N2CCc2cccc(OC)c2)cc1 (stereo unspecified)
111 to 112	CCOC(=O)C1=C(C)NC(C=O)=C(C(=O)OCC)C1c1ccccc1OC (stereo unspecified)
145 to 146	CCCc1nn(-c2ccc(C(F)(F)F)cn2)cc1CCCOc1c(C)cnn1CC(=O)O
144 to 146	COc1cccc([C@H]2O[C@H](CC(=O)Nc3ccc(CCC(=O)O)cc3)C(=O)N(CC(C)(C)COC(C)=O)c3ccc(Cl)cc32)c1OC
260	CCn1c(COc2ccc(NC(=O)c3cc(F)cc(N4CCOCC4)c3)c3ccccc23)n[nH]c1=O
92 to 93	Cc1cccc2c1N(CCN(C(C)C)C(C)C)C(=O)C2=O
